Results reported in PubChem BioAssay (NCI).
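Values below derive from 48-hour exposures of cells grown in 96-well plates, with endpoints linearly interpolated between the two concentrations bracketing the appropriate inhibition level. GI50 marks 50% less growth. TGI denotes the concentration required for complete inhibition of growth.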

Key:
Assay in all cases: NCI tumour cell line growth inhibition, 48 h
HCC-2998 colon = tested on: HCC-2998 colon
HCT-116 colon = tested on: HCT-116 colon
M14 melanoma = tested on: M14 melanoma
NCI-H23 lung = tested on: NCI-H23 lung
OVCAR-3 ovarian = tested on: OVCAR-3 ovarian
SK-MEL-5 melanoma = tested on: SK-MEL-5 melanoma
UACC-62 melanoma = tested on: UACC-62 melanoma
HCT-15 colon = tested on: HCT-15 colon
MDA-MB-231 breast = tested on: MDA-MB-231 breast
HS 578T breast = tested on: HS 578T breast

Row | Structure (SMILES) | TGI (HCC-2998 colon) | TGI (HCT-116 colon) | TGI (M14 melanoma) | TGI (NCI-H23 lung) | TGI (OVCAR-3 ovarian) | TGI (SK-MEL-5 melanoma) | TGI (UACC-62 melanoma) | TGI (HCT-15 colon) | GI50 (HCC-2998 colon) | GI50 (HCT-116 colon) | GI50 (HCT-15 colon) | GI50 (M14 melanoma) | GI50 (MDA-MB-231 breast) | TGI (MDA-MB-231 breast) | GI50 (NCI-H23 lung) | GI50 (OVCAR-3 ovarian) | GI50 (SK-MEL-5 melanoma) | GI50 (UACC-62 melanoma) | GI50 (HS 578T breast) | TGI (HS 578T breast)
1 | CC(Oc1ccc2c(=O)cc(-c3ccccc3)oc2c1)C(=O)O (stereo not given) | > 100 µM | > 100 µM | > 100 µM | > 100 µM | > 100 µM | > 100 µM | > 100 µM |  |  |  |  |  |  |  |  |  |  |  |  | 
2 | CSC(=NC(=O)c1ccccc1)SCCSC(=NC(=O)c1ccccc1)SC | > 100 µM | > 100 µM | > 100 µM | > 100 µM | > 100 µM | > 100 µM | > 100 µM | > 100 µM |  |  |  |  |  |  |  |  |  |  |  | 
3 | CC1(C)C2=CCCC(=O)[C@@]2(C)CC[C@@H]1O | > 100 µM | > 100 µM | > 100 µM | > 100 µM | > 100 µM | > 100 µM | > 100 µM |  |  |  |  |  |  |  |  |  |  |  |  | 
4 | Oc1ccccc1/C=N\Nc1ccccc1 | 15.5 µM | > 100 µM | 19.4 µM | 84.1 µM | > 100 µM | 19.8 µM | 10.1 µM | 26.4 µM | 3.45 µM | 7.22 µM | 4.16 µM | 3.7 µM | 0.553 µM | 22.7 µM | 12 µM | 10.4 µM | 3.59 µM | 0.798 µM |  | 
5 | CN(CCc1ccccn1)/[N+]([O-])=N/O (tested in a mixture with another compound) | > 100 µM | > 100 µM | > 100 µM | > 100 µM | > 100 µM | > 100 µM | > 100 µM | > 100 µM |  |  |  |  |  |  |  |  |  |  |  | 
6 | Cc1cc(C(=O)CC(Cl)=C(Cl)Cl)c(Cl)cc1Cl |  | 33.2 µM | 78.2 µM | 37.9 µM | 54.1 µM | 39.9 µM | 39.3 µM | 41.2 µM |  | 19.1 µM | 20 µM | 31.7 µM | 23.4 µM | 46.2 µM | 18.6 µM | 21.4 µM | 18 µM | 18.4 µM | 30.3 µM | 78.4 µM
7 | CCc1cc2c(Nc3ccccc3)c3c(nc2s1)CCCC3 | > 100 µM | > 100 µM | > 100 µM |  | > 100 µM | > 100 µM | > 100 µM | > 100 µM |  |  |  |  |  |  |  |  |  |  |  | 
8 | O=C(CCN1CCCC1)Nc1ccc2c(Nc3ccc(Br)cc3)c3ccccc3nc2c1 | 2.73 µM |  |  | 2.92 µM | 3.11 µM | 2.92 µM | 3.12 µM | 2.5 µM | 1.26 µM |  | 1.16 µM |  | 1.57 µM | 2.99 µM | 1.47 µM | 1.61 µM | 1.57 µM | 1.64 µM |  | 
9 | CC[C@@]1(O)C(=O)OCc2c1cc1n(c2=O)Cc2cc3cccc(N)c3nc2-1 | 48.1 µM | > 100 µM | > 100 µM | 31.5 µM | > 100 µM | > 100 µM | 31.7 µM |  | 16.6 µM | 16.8 µM |  | 9.27 µM |  |  | 5.81 µM | 66.8 µM | 8.75 µM | 4.74 µM |  | 
10 | CCOP(=O)(OCC)C(NC(c1ccccc1)c1ccccc1)c1ccsc1 (stereo not given) |  |  | 30.5 µM | 35.5 µM | 32.2 µM | 35.1 µM | 25.5 µM | 84.6 µM |  |  | 16.1 µM | 16.5 µM | 7.05 µM | 20.5 µM | 19.9 µM | 16.1 µM | 18.4 µM | 12.8 µM | 29.7 µM | 66.3 µM
11 | CC(/C=C1\CCC(CN(C)C)C1=O)c1cccc(Br)c1 (stereo not given) | 35.9 µM | 31 µM | 29.2 µM | 38 µM | 30.8 µM | 18.8 µM | 32.4 µM | 34 µM |  |  |  |  |  |  |  |  |  |  |  | 
12 | NS(=O)(=O)c1ccc(-n2nc(-c3ccccc3)cc2-c2cc(O)ccc2O)cc1 |  | > 100 µM | 80.8 µM | > 100 µM | > 100 µM | > 100 µM | > 100 µM | > 100 µM |  | 40.8 µM | > 100 µM | 31.9 µM | 25.6 µM | 72 µM | 77.1 µM | > 100 µM | > 100 µM | 44.9 µM | > 100 µM | > 100 µM
13 | COc1ccc2[nH]cc(Cc3c[nH]c4ccc(OC)cc34)c2c1 |  | 29.2 µM | 44 µM | 40.7 µM | 31.3 µM | 30.1 µM | 29.5 µM | 27.2 µM |  | 15.8 µM | 14.1 µM | 20.3 µM | 4.65 µM | 19.4 µM | 21.7 µM | 13.3 µM | 16.5 µM | 16 µM | 15.6 µM | 49.6 µM
14 | CCCCCCCCCCCCCP(=O)(OC)OC | 36 µM | 33.8 µM | 34.7 µM | 35.6 µM | 34.6 µM | 32.6 µM | 32.2 µM | 31.6 µM |  |  |  |  |  |  |  |  |  |  |  | 
15 | CCCCCC1CC=CC(NC(=O)OCc2ccccc2)C1/C=C/CCCC1OCCO1 (stereo not given) | > 100 µM | > 100 µM | > 100 µM | > 100 µM | > 100 µM | > 100 µM | > 100 µM | > 100 µM |  |  |  |  |  |  |  |  |  |  |  | 
16 | COC(=O)/C=C(C)/C=C/c1c(C)c(C(C)=O)c(C)n1C | > 100 µM | > 100 µM | > 100 µM | > 100 µM | > 100 µM |  | > 100 µM | > 100 µM |  |  |  |  |  |  |  |  |  |  |  | 
17 | O=C(O)CC(S)C(=O)O.[Li+].[Sb] (stereo not given) |  | > 100 µM | > 100 µM | > 100 µM | > 100 µM | 29 µM | > 100 µM | > 100 µM |  | > 100 µM | > 100 µM | 39.5 µM | > 100 µM | > 100 µM | > 100 µM | > 100 µM | 13.7 µM | > 100 µM | > 100 µM | > 100 µM
18 | CC(=O)CCn1[nH]c(=O)c(Cl)c(Cl)c1=O | > 100 µM | > 100 µM | > 100 µM | > 100 µM | > 100 µM | > 100 µM | > 100 µM | > 100 µM |  |  |  |  |  |  |  |  |  |  |  | 
